This note sets out measurements from patent US9790233B2, “Compositions and methods of modulating 15-PGDH activity” (CASE WESTERN RESERVE UNIVERSITY, priority 2012, dated 2017).

Where two headings read alike, the source gives them in different places.

The target of experiment [1] is 15-PGDH protein (Homo sapiens (Human), UniProt P15428). Description: Inhibition of enzymatic activity of recombinant 15-PGDH in vitro (tritium transfer from PGE2 or NADH fluorescence). It is filed as biochemical. The note with it: for IC50: recombinant 15-PGDH in vitro, read-out: Enzyme inhibition (IC50); for inhibition at […]: read-out: Enzyme inhibition % ([…]), recombinant 15-PGDH, […] compound, Table 18.

Experiment [2] concerns 15-PGDH luciferase fusion construct in V9m reporter cell line. Description: 15-PGDH-luciferase fusion gene reporter induction, V9m cells. It is filed as cell-based.
Experiment [3] relates to 15-PGDH luciferase fusion construct in LS174T reporter cell line. Description: 15-PGDH-luciferase fusion gene reporter induction, LS174T cells. The format is cell-based. The note with it: Homo sapiens.
Experiment [4] concerns 15-PGDH luciferase fusion construct in Vaco503 reporter cell line. As to the kind of experiment: 15-PGDH-luciferase fusion gene reporter induction, V503 cells. It is filed as cell-based.
Experiment [5] concerns A549 cells. Description: PGE2 levels in the medium of IL1-beta stimulated A549 cells.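 As to all read-outs here: PGE2 in the collected culture medium quantified by enzyme immunoassay (ELISA), with data drawn from three independent experiments.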 The format is cell-based. The note with it: for rank of reduction in levels of PGE2 in the medium / rank of PGE2 level in the medium: 100 nM drug; for rank of reduction in levels of PGE2 in the medium: FIG. 94; for Decrease PGE-2 (IL-1beta-A549, %): media of IL-1beta stimulated A549 cells; for rank of PGE2 level in the medium: FIG. 44.

The nature of experiment [6]: Survival after whole body irradiation. The following applies: 11 Gy. The format is in vivo, C57BL/6J mice.
Where [7] appears, read: read-out: V9M-SC3 Reporter activity ([…]) (%), V9m reporter cells, […] compound, % induction of luciferase activity over basal level, read-out: V9M-SC3 Reporter activity (2.5 μM) (%).
The mark [8] stands for this setting: read-out: V9M-SC3 Reporter activity ([…]), %, V9m reporter cells, […] compound, % induction of luciferase activity over basal level, read-out: V9M-SC3 Reporter activity (7.5 μM), %.
Where [9] appears, read: read-out: Ls174T-SC1 reporter activity, % ([…]), LS174T reporter cells, […] compound, % induction of luciferase activity over basal level, read-out: Ls174T-SC1 reporter activity, % (2.5 μM).
Where [10] appears, read: read-out: Ls174T-SC1 reporter activity, % ([…]), LS174T reporter cells, […] compound, % induction of luciferase activity over basal level, read-out: Ls174T-SC1 reporter activity, % (7.5 μM).
[11] abbreviates: read-out: V503-3H9-7 reporter activity, % ([…]), V503 reporter cells, […] compound, % induction of luciferase activity over basal level, read-out: V503-3H9-7 reporter activity, % (2.5 μM).
The mark [12] stands for this setting: read-out: V503-3H9-7 reporter activity, % ([…]), V503 reporter cells, […] compound, % induction of luciferase activity over basal level, read-out: V503-3H9-7 reporter activity, % (7.5 μM).
[13] abbreviates: read-out: Enzyme inhibition % (7.5 μM).
The mark [14] stands for this setting: read-out: V9M-SC3 Reporter activity ([…]) (%), […], Table 18, read-out: V9M-SC3 Reporter activity (2.5 μM) (%).
[15] abbreviates: read-out: Ls174T-SC1 reporter activity, % ([…]), […], Table 18, read-out: Ls174T-SC1 reporter activity, % (2.5 μM).
[16] abbreviates: read-out: Ls174T-SC1 reporter activity, % ([…]), […], Table 18, read-out: Ls174T-SC1 reporter activity, % (7.5 μM).
Setting [17] is: read-out: V503-3H9-7 reporter activity, % ([…]), […], Table 18, read-out: V503-3H9-7 reporter activity, % (2.5 μM).
The mark [18] stands for this setting: read-out: V503-3H9-7 reporter activity, % ([…]), […], Table 18, read-out: V503-3H9-7 reporter activity, % (7.5 μM).

15-PGDH protein, sequence (P15428 whole entry): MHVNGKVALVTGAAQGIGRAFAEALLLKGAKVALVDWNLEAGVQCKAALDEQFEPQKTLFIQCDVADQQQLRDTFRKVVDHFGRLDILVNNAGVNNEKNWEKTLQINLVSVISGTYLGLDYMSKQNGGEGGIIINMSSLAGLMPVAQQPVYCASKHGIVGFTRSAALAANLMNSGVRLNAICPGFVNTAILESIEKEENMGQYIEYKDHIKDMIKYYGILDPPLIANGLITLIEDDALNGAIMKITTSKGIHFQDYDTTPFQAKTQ

With `CCCC[S@](C)(O)c1sc2nc(-c3cccs3)cc(-c3ccccc3)c2c1N` [SW033291 isomer B], the IC50 in experiment [1] (Table 2) is 0.00076 µM.
In the case of `COc1ccc(S(=O)(=O)N(CC(=O)N2CCOCC2)c2cc(OC)ccc2OC)cc1` [SW207997], the activation at […] in experiment [2] (setting [7]) came to 59.5%; in experiment [2] (setting [8]) it was 71%; in experiment [3] (setting [9]), 87.6%; in experiment [3] (setting [10]), 94.1%; in experiment [4] (setting [11]), 149%; in experiment [4] (setting [12]) it was 157%. The “rank of reduction in levels of PGE2 in the medium” value in experiment [5] is on record as “greatest reduction in levels of PGE2”.
As for `COc1ccc(OC)c(N(CC(=O)Nc2cncnc2)S(=O)(=O)c2ccccc2)c1` [SW203683], the half-inhibitory concentration (IC50) in experiment [1] was approximately 7 µM. For the same molecule, the activation at […] in experiment [2] (setting [7]) is 137%; in experiment [2] (setting [8]), 191%; in experiment [3] (setting [9]), 3.76%; in experiment [3] (setting [10]), 210%; in experiment [4] (setting [11]) it was 104%; in experiment [4] (setting [12]) it was -41%. Also, the “Decrease PGE-2 (IL-1beta-A549, %)” value in experiment [5] is reported as −3.41%.
Turning to `COc1ccc(OC)c(N(CC(=O)Nc2ccc(C)cc2)S(=O)(=O)c2ccccc2)c1` [311333-86-5], the inhibition at […] in experiment [1] (setting [13]) turned out to be 34%. Moreover, the activation at […] in experiment [2] (setting [14]) turned out to be 53%; in experiment [3] (setting [15]) it was 30%; in experiment [3] (setting [16]) it was 53.4%; in experiment [4] (setting [17]) it was 102%; in experiment [4] (setting [18]), 131%.
Take “2-(butylsulfinyl)-4-phenyl-6-(thiophen-2-yl)thieno[2,3-b]pyridin-3-amine [SW033291]”: the “longer survival than vehicle control” value in experiment [6] (5 mg/kg IP daily) worked out at 48 h. In experiment [6] (control day 8), the “day on which all mice were dead” value is 10 days.
For the molecule `CCOC(=O)CN(c1cc(OC)ccc1OC)S(=O)(=O)c1ccccc1` [SW202951], the activation at […] in experiment [2] (setting [7]) is 4.56%; in experiment [2] (setting [8]), 17.7%; in experiment [3] (setting [9]), 34.3%; in experiment [3] (setting [10]), 47.6%; in experiment [4] (setting [11]), 97.5%; in experiment [4] (setting [12]), 131%. Besides, the “Decrease PGE-2 (IL-1beta-A549, %)” value in experiment [5] is −1.01%.
On to `COc1ccc(OC)c(N(CC(=O)Nc2ccncc2)S(=O)(=O)c2ccccc2)c1` [SW202938], for which, in experiment [1], the IC50 worked out at 2.67 µM. Further, the activation at […] in experiment [2] (setting [7]) turned out to be 155%; in experiment [2] (setting [8]), 230%; in experiment [3] (setting [9]) it was 217%; in experiment [3] (setting [10]), 241%; in experiment [4] (setting [11]) it was 309%; in experiment [4] (setting [12]), 301%. Besides, in experiment [5], the “Decrease PGE-2 (IL-1beta-A549, %)” value is recorded as −47.55%.
Turning to `COc1ccc(OC)c(N(CC(=O)Nc2ccc(C)nc2)S(=O)(=O)c2ccccc2)c1` [SW202988], the IC50 in experiment [1] is approximately 10 µM. Besides, the activation at […] in experiment [2] (setting [7]) turned out to be 7.36%; in experiment [2] (setting [8]) it was 54.4%; in experiment [3] (setting [9]) it was 40.5%; in experiment [3] (setting [10]), 125%; in experiment [4] (setting [11]) it was 125%; in experiment [4] (setting [12]), 258%. In addition, the “Decrease PGE-2 (IL-1beta-A549, %)” value in experiment [5] is −16.79%.
`COc1ccc(NC(=O)CN(c2cc(OC)ccc2OC)S(=O)(=O)c2ccccc2)cc1` [333447-10-2]: the inhibition at […] in experiment [1] (read-out: Enzyme inhibition % (2.5 μM)) came out at 27%; in experiment [1] (setting [13]), 46.5%. Also, the percent induction of reporter activity over basal level at […] in experiment [2] (read-out: V9M-SC3 Reporter activity % ([…]), 7.5 μM, Table 18) was determined as 10%. The activation at […] in experiment [2] (setting [14]) was -0.5%; in experiment [3] (setting [15]) it was 7.54%; in experiment [3] (setting [16]) it was 14.4%; in experiment [4] (setting [17]) it was 76.9%; in experiment [4] (setting [18]), 159%.
As to `CCCC[S+]([O-])c1sc2nc(-c3cccs3)nc(-c3ccccc3)c2c1N` (stereo not drawn) [SW208067, 6-(butylsulfinyl)-4-phenyl-2-(thiophen-2-yl)thieno[2,3-d]pyrimidin-5-amine], the activation at […] in experiment [2] (read-out: V9M reporter activity ([…]), […], % increased luciferase activity over basal level, 100 = doubling, read-out: V9M reporter activity (2.5 uM)) worked out at 122%; in experiment [2] (read-out: V9M reporter activity ([…]), […], % increased luciferase activity over basal level, 100 = doubling, read-out: V9M reporter activity (7.5 uM)), 108%; in experiment [3] (read-out: LS174T reporter activity ([…]), […], % increased luciferase activity over basal level, read-out: LS174T reporter activity (2.5 uM)), 94.3%; in experiment [3] (read-out: LS174T reporter activity ([…]), […], % increased luciferase activity over basal level, read-out: LS174T reporter activity (7.5 uM)), 79.6%; in experiment [4] (read-out: V503 reporter activity ([…]), […], % increased luciferase activity over basal level, read-out: V503 reporter activity (2.5 uM)) it was 94.3%; in experiment [4] (read-out: V503 reporter activity ([…]), […], % increased luciferase activity over basal level, read-out: V503 reporter activity (7.5 uM)) it was 79.6%. Moreover, the “rank of PGE2 level in the medium” value in experiment [5] is on record as “highest levels of PGE2”.
For the molecule `COc1ccc(OC)c(N(CC(=O)Nc2ccnnc2)S(=O)(=O)c2ccccc2)c1` [SW203685], the half-inhibitory concentration (IC50) in experiment [1] worked out at 5 µM. Also, the activation at […] in experiment [2] (setting [7]) was 100%; in experiment [2] (setting [8]), 204%; in experiment [3] (setting [9]) it was 22.3%; in experiment [3] (setting [10]), 254%; in experiment [4] (setting [11]) it was 122%; in experiment [4] (setting [12]), -33.2%. For the same molecule, the “Decrease PGE-2 (IL-1beta-A549, %)” value in experiment [5] is recorded as 17.84%.
For the molecule `CCCC[S+]([O-])c1sc2nc(-c3nccs3)cc(-c3ccccc3)c2c1N` (stereo not drawn) [SW208066, 2-(butylsulfinyl)-4-phenyl-6-(thiazol-2-yl)thieno[2,3-b]pyridin-3-amine], the “rank of PGE2 level in the medium” value in experiment [5] is “highest levels of PGE2”.
As for `COc1ccc(S(=O)(=O)N(CC(=O)N2CCCCCC2)c2cc(OC)ccc2OC)cc1` [SW207998], the activation at […] in experiment [2] (setting [7]) turned out to be 53.4%; in experiment [2] (setting [8]) it was 58.9%; in experiment [3] (setting [9]), 65.2%; in experiment [3] (setting [10]), 77%; in experiment [4] (setting [11]) it was 144%; in experiment [4] (setting [12]), 147%. The “rank of reduction in levels of PGE2 in the medium” value in experiment [5] is recorded as “greatest reduction in levels of PGE2”.
On to `COc1ccc(OC)c(N(CC(=O)N2CCCC2)S(=O)(=O)c2ccccc2)c1` [SW208001], for which the activation at […] in experiment [2] (setting [7]) was 19.6%; in experiment [2] (setting [8]), 23.3%; in experiment [3] (setting [9]), -0.61%; in experiment [3] (setting [10]) it was 1.87%; in experiment [4] (setting [11]) it was -4.07%; in experiment [4] (setting [12]), 6.68%.
On to `COc1ccc(OC)c(N(C(C)C(=O)Nc2cccnc2)S(=O)(=O)c2ccccc2)c1` (stereo not drawn) [SW202991], for which the activation at […] in experiment [2] (setting [7]) is -25%; in experiment [2] (setting [8]) it was -7.5%; in experiment [3] (setting [9]) it was -15.6%; in experiment [3] (setting [10]), 2.09%; in experiment [4] (setting [11]), -6.08%; in experiment [4] (setting [12]), 8.9%.
Turning to `COc1ccc(N(CC(=O)Nc2cccnc2)S(=O)(=O)c2ccccc2)c(OC)c1` [310875−38−8], the activation at […] in experiment [2] (setting [14]) was -8.72%; in experiment [3] (setting [15]), 27.7%; in experiment [3] (setting [16]) it was 102%; in experiment [4] (setting [17]), 64.1%; in experiment [4] (setting [18]) it was 148%.
With `COc1ccc(OC)c(NCC(=O)Nc2cccnc2)c1` [SW202948], the activation at […] in experiment [2] (setting [7]) is -22%; in experiment [2] (setting [8]), -23.1%; in experiment [3] (setting [9]), -6.73%; in experiment [3] (setting [10]), 8.36%; in experiment [4] (setting [11]) it was 16.4%; in experiment [4] (setting [12]), 7.54%.
Consider `COC(=O)CN(c1cc(OC)ccc1OC)S(=O)(=O)c1ccccc1` [SW202980], for which the activation at […] in experiment [2] (setting [7]) was -27.6%; in experiment [2] (setting [8]), -13.4%; in experiment [3] (setting [9]) it was -7.34%; in experiment [3] (setting [10]), 5.17%; in experiment [4] (setting [11]) it was 11.4%; in experiment [4] (setting [12]) it was 50.6%.
Regarding `CCCC[S+]([O-])c1ncccc1[N+](=O)[O-]` (stereo not drawn) [SW208069, 2-(butylsulfinyl)-3-nitropyridine], in experiment [1] (Table 2, cells printed in uM), the IC50 is more than 7.5 µM.
